Read-outs that look alike come from different tables or passages of the source.
What was measured:
[1] = system: human retinal pigment epithelial RPE cells; assay: Cell viability assay on normal cells; details: at a maximum concentration of 30 μM
NCI 60 cell lines = assay: NCI 60 cell five-dose assay; type: cell-based; details: read-out: TGI (μM)
[2] = S9 fraction metabolic stability assay; type: in vitro ADME, human; details: 0.02 mM substrate, NADPH, 37 °C, monitored over 2 h
[3] = system: HCT116 human colon cancer cells; assay: Cell growth inhibition / viability assay
[4] = system: PARP1 cleavage in HCT116 cells; assay: Western blot analysis of PARP1 cleavage; type: cell-based, human; details: HCT116 cells treated for 24 h
[5] = system: acetyl–H3 and pan acetyl–lysine; assay: Hyperacetylation assay by Western blot; type: cell-based, human; details: 5 and 10 μM
[6] = reported earlier; cited from earlier work
[7] = Homo sapiens, HCT-116, read-out: IC50 ± SD (μM) (n = 3) on HCT116 cell line

COc1ccc(NC(=O)CCCCCCNC(=O)C(O)(O)C(F)(F)F)cc1 [Compound 55, N-(4-methoxyphenyl)-7-(3,3,3-trifluoro-2,2-dihydroxypropanamido)heptanamide]
cell survival, RPE [1]: more than 50%

O=C(CCCCCCNC(=O)C(O)(O)C(F)(F)F)Nc1ncc(-c2ccccc2)s1 [Compound 58, N-(5-phenylthiazol-2-yl)-7-(3,3,3-trifluoro-2,2-dihydroxypropanamido)heptanamide]
IC (TGI) (NCI 60 cell lines): 17 µM

O=C(CCCCCCNC(=O)C(O)(O)C(F)(F)F)Nc1nccs1 [Compound 60, N-(thiazol-2-yl)-7-(3,3,3-trifluoro-2,2-dihydroxypropanamido) heptanamide]
disappearance of the M+1 peak in S9 fraction [2]: did not disappear over 2 h

COc1cc(NC(=O)CCCCCCNC(=O)C(O)(O)C(F)(F)F)cc(OC)c1OC [Compound 71, 7-(3,3,3-trifluoro-2,2-dihydroxypropanamido)-N-(3,4,5-trimethoxyphenyl)heptanamide]
IC50 [3, 7]: 3.45 ± 0.36 µM

O=C(CCCCCCNC(=O)C(O)(O)C(F)(F)F)Nc1nc2ccc(Br)cc2o1 [Compound 80, N-(6-bromobenzo[d]oxazol-2-yl)-7-(3,3,3-trifluoro-2,2-dihydroxypropanamido)heptanamide]
IC50 [3, 7]: 7.56 ± 0.73 µM

COc1ccc2sc(NC(=O)CCCCCCNC(=O)C(O)(O)C(F)(F)F)nc2c1 [Compound 83, N-(5-methoxybenzo[d]thiazol-2-yl)-7-(3,3,3-trifluoro-2,2-dihydroxypropanamido)heptanamide]
cleaved PARP1 (Western blot) [4]: Dose-dependent elevation

COc1ccc(-c2cnc(NC(=O)CCCCCCNC(=O)C(O)(O)C(F)(F)F)s2)cc1 [Compound 84, N-(5-(4-methoxyphenyl)thiazol-2-yl)-7-(3,3,3-trifluoro-2,2-dihydroxypropanamido)heptanamide]
levels of acetylated H3 (Western blot) [5]: increased levels | levels of pan-acetyl-lysine (Western blot) [5]: increased levels | cleaved PARP1 (Western blot) [4]: Absence of PARP1 cleavage

O=C(CCCCCCNC(=O)C(O)(O)C(F)(F)F)Nc1ncc(-c2ccc(Br)cc2)s1 [Compound 85, N-(5-(4-bromophenyl)thiazol-2-yl)-7-(3,3,3-trifluoro-2,2-dihydroxypropanamido)heptanamide]
cleaved PARP1 (Western blot) [4]: Dose-dependent elevation

OC(O)(c1c(F)c(F)c(-n2cc(-c3ccccc3)nn2)c(F)c1F)C(F)(F)F [Compound 89]
HCT116 IC50 ([3]; zinc-binding group screening, maximum concentration of 100 μM): inactive

O=C(CCCCCCC(=O)C(F)(F)F)Nc1ccccc1 [Compound 91]
half-life [6]: less than 30 min

N-phenyl-6-(3,3,3-trifluoro-2,2-dihydroxypropanamido)hexanamide [Compound 10b]
IC50 ([3]; read-out: IC50 (μM) HCT116, effect of linker length, linker length n = 3–7): 54.4 ± 6.02 µM
